Values quoted from earlier work as cited in patent US20180271924A1, “COMPOUND AND METHOD FOR REDUCING INFLAMMATION, PAIN, ALLERGY, FLU AND COLD SYMPTOMS” (priority 2018, published 2018).
Values after ≈ are worked out from the molar mass of the structure shown. Read-outs that look alike come from different tables or passages of the source.

Legend:
[1] = 200 mg/kg
[2] = extract 100, 300, 500 mg/kg
[3] = tested on: mu-, delta- and kappa-opioid binding sites
[4] = for time of peak analgesic effect: pseudoakuammigine 5.0 mg/kg p.o., morphine 1.0 mg/kg s.c., indomethacin 2.5 mg/kg p.o.
ORL1-binding sites = ORL1-binding sites (Cavia porcellus, UniProt P47748)
Sequence of ORL1-binding sites (P47748 whole entry): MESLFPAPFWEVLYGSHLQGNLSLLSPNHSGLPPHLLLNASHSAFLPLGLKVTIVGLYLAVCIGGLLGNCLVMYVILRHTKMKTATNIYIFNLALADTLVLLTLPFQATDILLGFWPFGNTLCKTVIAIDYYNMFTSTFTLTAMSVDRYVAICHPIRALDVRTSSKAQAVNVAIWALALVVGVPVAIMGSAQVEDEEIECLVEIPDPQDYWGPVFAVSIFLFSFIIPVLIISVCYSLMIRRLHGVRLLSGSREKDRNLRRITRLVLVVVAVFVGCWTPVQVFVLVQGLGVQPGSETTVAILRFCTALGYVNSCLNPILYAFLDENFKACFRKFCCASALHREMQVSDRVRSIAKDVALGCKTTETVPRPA

[5] = for pain relief, THC versus codeine: 36 cancer pain patients, 20 mg THC, 120 mg codeine
[6] = 5 mg THC; for analgesic effect: 50 mg codeine
[7] = extract 100-500 mg/kg; diclofenac 10-100 mg/kg; morphine 1-10 mg/kg
[8] = subcutaneous
[9] = not given; remark: listed apart in the source
[10] = mouse, in vivo
mast cells = conditions: induced by compound 48/80
[11] = human studies
[12] = not given; remark: listed apart in the source
[13] = extract 100, 300, 500 mg/kg; diazepam 0.1-1 mg/kg; caffeine 10, 30, 100 mg/kg
[14] = not given; remark: listed apart in the source
[15] = not given; remark: listed apart in the source
[16] = extract 100, 300, 500 mg/kg; diazepam 0.1-1 mg/kg
[17] = 0.5 mg/kg
[18] = 20.0 mg/kg
[19] = tested on: dividing and non-dividing cells
kappa receptors = target: T1, kappa receptors (Rattus norvegicus, UniProt P34975); conditions: rat CNS membranes
T1 construct: membranes prepared from rat central nervous system; from tissue; host or cells: rat central nervous system membranes
T1 sequence (P34975 whole entry): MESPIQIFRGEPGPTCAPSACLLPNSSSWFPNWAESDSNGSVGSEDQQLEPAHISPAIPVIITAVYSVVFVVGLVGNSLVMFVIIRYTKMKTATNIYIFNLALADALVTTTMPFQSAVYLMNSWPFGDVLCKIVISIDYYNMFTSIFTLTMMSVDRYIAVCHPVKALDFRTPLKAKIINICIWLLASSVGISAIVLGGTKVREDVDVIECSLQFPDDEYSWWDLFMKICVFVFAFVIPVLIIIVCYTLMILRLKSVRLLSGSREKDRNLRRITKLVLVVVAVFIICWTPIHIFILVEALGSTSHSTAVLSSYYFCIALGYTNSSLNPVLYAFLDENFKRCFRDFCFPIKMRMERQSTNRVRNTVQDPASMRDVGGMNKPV

ORL1 receptors = target: T2, ORL1 receptors (Cavia porcellus, UniProt P47748); conditions: guinea pig small intestine
T2 construct: functional ORL1 receptors in the guinea pig small intestine; from tissue; host or cells: guinea pig small intestine
T2 sequence (P47748 whole entry): as the sequence (P47748 whole entry) above

delta opioid receptor = target: T3, delta opioid receptor (Rattus norvegicus, UniProt P33533); conditions: rat CNS membranes
T3 construct: membranes prepared from rat central nervous system; from tissue; host or cells: rat central nervous system membranes
T3 sequence (P33533 whole entry): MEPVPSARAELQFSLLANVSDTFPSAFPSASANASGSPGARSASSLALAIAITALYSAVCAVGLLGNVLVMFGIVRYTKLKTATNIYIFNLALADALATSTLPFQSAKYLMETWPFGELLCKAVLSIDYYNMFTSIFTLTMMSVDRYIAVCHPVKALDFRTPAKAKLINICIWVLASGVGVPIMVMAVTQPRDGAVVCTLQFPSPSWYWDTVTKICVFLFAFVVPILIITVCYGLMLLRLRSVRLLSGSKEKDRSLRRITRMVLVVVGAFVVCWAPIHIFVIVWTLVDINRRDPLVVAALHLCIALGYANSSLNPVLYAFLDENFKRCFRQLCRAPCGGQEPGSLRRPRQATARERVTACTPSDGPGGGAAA

mu-opioid binding sites = conditions: corresponds to K value
mu receptors = target: T4, mu receptors (Rattus norvegicus, UniProt P33535); conditions: rat CNS membranes
T4 construct: membranes prepared from rat central nervous system; from tissue; host or cells: rat central nervous system membranes
T4 sequence (P33535 whole entry): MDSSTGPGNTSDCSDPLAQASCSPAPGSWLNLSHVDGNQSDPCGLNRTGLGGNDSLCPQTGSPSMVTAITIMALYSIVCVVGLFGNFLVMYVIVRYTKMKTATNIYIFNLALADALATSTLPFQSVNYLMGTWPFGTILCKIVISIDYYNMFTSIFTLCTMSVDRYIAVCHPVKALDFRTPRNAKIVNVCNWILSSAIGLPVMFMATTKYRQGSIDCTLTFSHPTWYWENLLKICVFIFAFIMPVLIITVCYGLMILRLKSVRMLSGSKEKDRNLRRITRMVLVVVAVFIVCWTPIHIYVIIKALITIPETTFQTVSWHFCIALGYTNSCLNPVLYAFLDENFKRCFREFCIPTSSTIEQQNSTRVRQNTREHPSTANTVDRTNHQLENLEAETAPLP

[20] = not given; remark: listed apart in the source
[21] = not given; remark: listed apart in the source
[22] = anesthetized rats; reversed by naloxone
[23] = mitragynine 2 mg/mL
[24] = extract 300, 500 mg/kg
[25] = DPPH
[26] = extract 100, 300, 500 mg/kg; remark: listed apart in the source
[27] = 50 mg THC daily
[28] = extract 100, 300, 500 mg/kg; diclofenac 10, 30, 100 mg/kg; 20 minutes observation

## CC(=O)Oc1ccccc1C(=O)O [aspirin]
[1]
  mean percentage antipyrexia: 29.0%

## COc1ccc2c3c1O[C@H]1[C@@H](O)CC[C@H]4[C@@H](C2)N(C)CC[C@@]341 [dihydrocodeine]
[2]
  cough count: dose-dependently reduced (P<0.05) cough count
  latency of cough: increased significantly (P<0.01) the latency of cough

## COC(=O)C1=CO[C@@H](C)[C@@H]2CN3CCc4c([nH]c5ccccc45)[C@H]3C[C@H]12 [akuammigine]
[3]
  opioid binding (words): no opioid binding
[3]; listed as Akuammigine
  opioid binding (words): no affinity for any of the opioid binding sites

## C/C=C1/CN2CC[C@@]34c5ccccc5N(C)[C@]35OC[C@@]4(C(=O)OC)[C@H]1C[C@H]25 [pseudoakuammigine]
[4]; on molar basis
  ED50 (analgesic): 10 muM
  times less potent than indomethacin as an analgesic: 1.6 times
  times less potent than morphine as an analgesic: 3.5 times
[4]
  time of peak analgesic effect: 180 min
Opioid receptors; antagonised by naloxone
  effect on electrically-induced contractions: inhibited the electrically-induced contractions
ORL1-binding sites
  affinity for ORL1-binding sites (words): little affinity
50 mg kg, p.o.
  maximal inhibitory effect (anti-inflammatory): 44%
1.0, 5.0, 50 mg/kg p.o.
  activity on carrageenan-induced paw oedema: dose-dependent inhibitory activity
[3]
  opioid binding (words): low affinity
[3]; listed as Pseudoakuammigine
  opioid binding (words): bound equally to both mu and delta-opioid binding sites

## COc1ccc2c3c1O[C@H]1[C@@H](O)C=C[C@H]4[C@@H](C2)N(C)CC[C@@]341 [codeine]
[5]
  pain relief, THC versus codeine: equally effective
[6]
  analgesic effect: analgesic effect in comparison with placebo

## CN1CC[C@]23c4c5ccc(O)c4O[C@H]2[C@@H](O)C=C[C@H]3[C@H]1C5 [morphine, reference compound]
[4]; on molar basis
  ED50 (analgesic): 2.9 muM
[4]
  time of peak analgesic effect: 30 min
[7]
  tail withdrawal latency / antinociceptive effect: significant (P<0.0001) dose dependent increase in tail withdrawal latencies

## CC[C@@H]1CN2CC[C@@]3(O)C(=Nc4cccc(OC)c43)[C@@H]2C[C@@H]1/C(=C\OC)C(=O)OC [7-hydroxymitragynine]
[8]
  gastrointestinal transit: inhibition of the gastrointestinal transit

## CCCCCc1cc(O)c2c(c1)OC(C)(C)[C@@H]1CCC(C)=C[C@@H]21 [Delta 1-THC]
[9]; oral
  dose of maximal effect in the PBQ test: 10 mg/kg

## O=C(O)c1cc(=O)c2c(OCC(O)COc3cccc4oc(C(=O)O)cc(=O)c34)cccc2o1 [sodium cromoglicate]
[10]
  tracheal phenol red secretion (muco-suppressant): caused a reduction (P<0.01) in tracheal phenol red secretion
Mast cells
  mast cell degranulation: reduce significantly (P<0.01) mast cell degranulation

## CC(=O)Oc1cc(O[C@H](C)CCCc2ccccc2)cc2c1[C@@H]1C[C@H](O)CC[C@H]1[C@H](C)N2 [Levonantradol]
[11]
  analgesia versus placebo: superior to placebo
  sedation: almost half the patients reported sedation
[12]; 1.5, 2, 2.5, 3 mg intramuscular, 56 patients
  pain relief versus placebo: all doses were significantly superior to placebo
[12]; in vivo
  patients reporting at least one side-effect: 57%

## Cn1c(=O)c2c(ncn2C)n(C)c1=O [caffeine]
[13]
  effect in open arm test: anxiogenic effect

## COc1ccc2cc3[n+](cc2c1OC)CCc1cc2c(cc1-3)OCO2 [Umbellatine, umbellatine]
[14]; 10-300 mg/kg
  analgesic activity, hot plate: dose-dependently active
[14]; 200 and 300 mg/kg
  analgesic activity, hot plate: comparable in efficacy to that obtained with 6 mg/kg of morphine
[15]; 100 mg/kg
  analgesic activity, tail-flick: clearly active
[15]; 200 and 300 mg/kg
  analgesic activity, tail-flick: comparable in efficacy to those of 6 mg/kg of morphine

## CN1C(=O)CN=C(c2ccccc2)c2cc(Cl)ccc21 [diazepam]
[16]
  frequency of central zone entries: dose dependently increased the frequency of central zone entries
[13]
  effect in open arm test: dose dependently and significantly increased the percentage of open arm entries

## CN1CC[C@]2(c3cccc4c3N[C@@H]3N(C)CC[C@]43[C@@]34CCN(C)[C@@H]3Nc3ccccc34)c3ccccc3N[C@H]12 [hodgkinsine]
[17]
  analgesic activity, tail-flick: comparable to that of 6.0 mg/kg of morphine
[18]
  analgesic activity, hot-plate: comparable with 6.0 mg/kg of morphine
[19]
  cytotoxicity: low cytotoxicity

## CCCCCc1cc(O)cc(O)c1 [olivetol]
[9]; oral
  dose of maximal effect in the PBQ test: about 100 mg/kg

## C/C=C1/CN2CC[C@@]34c5cc(O)ccc5N(C)[C@]35OC[C@@]4(C(=O)OC)[C@H]1C[C@H]25 [akuammine]
Kappa receptors
  affinity for kappa receptors: micromolecular affinities
ORL1 receptors
  antagonism of nociceptin at functional ORL1 receptors: does not antagonize nociceptin
Opioid receptors
  character at opioid receptors: opioid antagonist
Delta opioid receptor
  affinity for delta opioid receptor relative to kappa and mu: ten times lower
mu-opioid binding sites
  affinity: 2.1 mM⁻¹
Mu receptors
  affinity for mu receptors: micromolecular affinities
ORL1-binding sites
  affinity for ORL1-binding sites (words): neither akuammine nor any of the other alkaloids showed appreciable affinity
ORL1-binding sites; listed as Akuammine
  affinity for ORL1-binding sites (words): little affinity
[20]
  solubility in water: slightly soluble in water
[3]
  opioid binding (words): low affinity

## C=C(C)[C@@H]1CCC(C)=C[C@H]1c1c(O)cc(CCCCC)cc1O [CBD, cannabidiol]
[9]; oral, 100 mg/kg
  effectiveness at inhibition of PBQ-induced writhing: most effective

## CC[C@@H]1CN2CCc3c([nH]c4cccc(OC)c34)[C@@H]2C[C@@H]1/C(=C\OC)C(=O)OC [mitragynine]
[21]; dose levels of 800-900 mg/kg in rodents
  toxicity: no toxicity
[21]; oral 200 mg/kg, rats
  lethality: lethal effects
[22]
  gastric acid secretion: inhibition of 2-deoxy-D-glucose-stimulated gastric acid secretion in a dose dependent manner
[23]
  nerve conduction, compound nerve action potential: blocked the nerve conduction

## COc1ccc(CN(CCN(C)C)c2ccccn2)cc1 [mepyramine]
[24]
  histamine-induced bronchoconstriction and cough: reduced significantly (P<0.01-0.0001) bronchoconstriction and cough induced by histamine

## O=C1O[C@H]([C@@H](O)CO)C(O)=C1O [ascorbic acid]
[25]
  EC50 (free radical scavenging): 1.07 µg/mL (≈ 6.08 µM)

## COc1ccc2c(c1)c(CC(=O)O)c(C)n2C(=O)c1ccc(Cl)cc1 [indomethacin, reference compound]
[4]; on molar basis
  ED50 (analgesic): 6.3 muM
[4]
  time of peak analgesic effect: 60 min

## CN1[C@@H]2CC[C@H]1C[C@@H](OC(=O)C(CO)c1ccccc1)C2 (stereo partly drawn) [Atropine]
[26]
  protection against acetylcholine-induced bronchoconstriction and cough: significantly (P<0.05-0.0001) protected

## CCCCCc1cc(O)c2c(c1)OC(C)(C)[C@@H]1CCC(C)=C[C@@H]21 [THC, delta-9-tetrahydrocannabinol]
[11]
  analgesia versus placebo: significantly superior to placebo
  time of peak analgesia: around 5 hours
[5]; 10 cancer pain patients, at doses of 15 and 20 mg
  pain relief versus placebo: pain relief significantly superior to placebo
[5]
  pain relief, THC versus codeine: equally effective
[27]
  morphine requirement: morphine requirement was significantly reduced (P<0.01)
[6]
  effect on spasticity: significant effect on spasticity
  analgesic effect: analgesic effect in comparison with placebo

## CCCCCc1cc(O)c2c(c1)OC(C)(C)c1ccc(C)cc1-2 [CNB, cannabinol]
[9]; doses higher than 10 mg/kg
  inhibition of PBQ-induced writhing: 40%

## O=C(O)Cc1ccccc1Nc1c(Cl)cccc1Cl [diclofenac]
[28]
  abdominal writhes: suppressed the writhing
[7]
  tail withdrawal latency / antinociceptive effect: increased tail withdrawal latencies
